“Also recorded” adds a separate entry of the source. A value given as a limit tells only on which side of the number the result lay.

In the first experiment the target is T1, KinA (Bacillus subtilis, UniProt P16497).
T1 construct: made in house
T1 sequence (P16497 1-606): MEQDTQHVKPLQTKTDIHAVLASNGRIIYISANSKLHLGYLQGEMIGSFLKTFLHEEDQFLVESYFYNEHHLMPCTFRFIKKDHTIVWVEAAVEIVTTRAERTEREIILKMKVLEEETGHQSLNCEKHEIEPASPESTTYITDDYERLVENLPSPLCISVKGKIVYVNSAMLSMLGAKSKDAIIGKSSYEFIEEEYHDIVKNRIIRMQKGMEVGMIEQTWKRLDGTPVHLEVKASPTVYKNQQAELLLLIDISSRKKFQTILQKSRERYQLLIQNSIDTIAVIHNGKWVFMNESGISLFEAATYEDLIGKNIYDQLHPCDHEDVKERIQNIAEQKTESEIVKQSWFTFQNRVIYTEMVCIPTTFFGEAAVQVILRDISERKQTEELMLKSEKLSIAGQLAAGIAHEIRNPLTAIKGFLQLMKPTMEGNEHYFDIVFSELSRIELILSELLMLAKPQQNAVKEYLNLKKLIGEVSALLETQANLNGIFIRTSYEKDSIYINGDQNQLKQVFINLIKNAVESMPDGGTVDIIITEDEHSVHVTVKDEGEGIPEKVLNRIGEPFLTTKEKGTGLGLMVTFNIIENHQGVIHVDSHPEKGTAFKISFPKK
The experiment in a line: biochemical. Type of experiment: biochemical.
Conditions: not given
As for the experimental part:
The reactions were performed in a 25 μl final volume containing 100 mM Tris pH 8.0, 100 mM KCl, 2 mM MgCl2, 0.5 mM dithiothreitol, 10% (v/v) glycerol, 0.1 % (w/v) gelatin, 4% (v/v) ethanol, 200 μM total ATP containing approximately 1.5 μCi [gamma-^32 P]ATP (New England Nuclear, 6000 Ci/mMol, 150 μCi/ml), 300 μM SpoOF protein and 0.04 μM KinA protein (Perego, et al., J. Bacteriol. 171: 6187-6196 (1989)) unless otherwise indicated. Fatty acids were added to varying final concentration from solutions made with 100% ethanol (the 4% ethanol concentration in the reaction mixture reflects these addition, or in the case of controls, the addition of ethanol alone). The reactions were initiated by addition of the ATP and incubated for thirty minutes at room temperature.
When higher KinA concentrations were used, the time of incubation was adjusted accordingly. The reactions were stopped by adding an equal volume of loading dye (0.25 M Tris pH 6.8, 20% (v/v) glycerol, 1% sodium dodecyl sulfate (w/v), 140 mM β-mercaptoethanol, 0.05% (w/v) bromophenol blue) and aliquots were loaded onto polyacrylamide gels (5% stacking, 15% separating, using the buffer system of Laemmi, Id., 1970).
The gels were run for approximately 16 hours at 10 mA constant current. The gels were covered with plastic wrap and subjected to autoradiography using Kodak XOmat RP1 film. Quantitation of activity was accomplished by cutting gels slices containing the appropriate phosphoprotein (usually SpoOF~P, see Section E below) and counting the Cerenkov radiation in a Beckman LF7500 scintillation counter (Beckman Instruments, Fullerton, Calif.). Equal-sized slices from blank areas of the gels were also counted and used to adjust for background. Percentage of activity was calculated using the value of the control reaction as 100%.
To quantify our initial assessment of inhibitory properties, the I0.5 values (at 4×10^-8 M KinA) were determined for each of the fatty acids. […] For example, the percent activity at an indicated oleic acid concentration is the ratio (×100) of the incorporation of ^32 P (from [γ^32 P]ATP) into the SpoOF protein relative to the incorporation in the control reaction containing no inhibitor. Typically, data are gathered from at least two different experiments. The I0.5 value is the concentration--e.g., the oleic acid concentration--corresponding to 50% activity as determined from the relevant graph.
Turning to `CC(C)CCCCCCCCCCC(=O)O` [12-methyltridecanoic], the “inhibitory effect on KinA in vitro (in words)” value (“inhibitory effect on KinA” for short) is on record as “weak inhibitors”. Still for that read-out and setting: next, `CC(C)CCCCCCCCCCCC(=O)O` [13-methyltetradecanoic]: “weak inhibitors”; `CC(C)CCCCCCCCCCCCC(=O)O` [14-methylpentadecanoic]: “not inhibitors”; `CC(C)CCCCCCCCCCCCCC(=O)O` [15-methylhexadecanoic]: “not inhibitors”. On the same count and under the same terms, under `CC(C)CCCCCCCCCCCCCCC(=O)O` [16-methylheptadecanoic] stands “not inhibitors”; under `CCCCCC/C=C\CCCCCCCC(=O)O` [cis-9-hexadecanoic], “potent inhibitors”; under `CCCC/C=C\CCCCCCCC(=O)O` [cis-9-tetradecenoic], “only a weak inhibitor”.

With `CCCCCC/C=C\CCCCCCCCCC(=O)O` [cis-11-octadecanoic], the “inhibitory effect on KinA” value is reported as “potent inhibitors”.

Turning to `CCCCCCCC/C=C\CCCCCCCCCCCC(=O)O` [cis-13-docosenoic], the “inhibitory effect on KinA” value is “non-inhibitory”. As to `CCCCCCCC/C=C\CCCCCCCCCCCCCC(=O)O` [cis-15-tetracosenoic], the “inhibitory effect on KinA” value is on record as “non-inhibitory”. Same read-out and setting: next, `CCCCCCCCCC(=O)O` [decanoic]: “not inhibitors”. Same read-out and setting: next, `CCCCCCCCCCCC(=O)O` [dodecanoic]: “not inhibitors”; `CCCCCCCCCCCCCCCC(=O)O` [hexadecanoic]: “little or no inhibitory effect”; `CCCCCC(=O)O` [hexanoic]: “not inhibitors”. Same read-out and setting: under `CCCCCCCC(=O)O` [octanoic] stands “not inhibitors”.

Still in this experiment, the particulars now being: Fatty Acid Inhibitors of KinA Activity (category by I0.5), Table 4; I0.5 at 4×10^-8 M KinA, 32P incorporation into SpoOF.
In turn, `CCCCC/C=C\C/C=C\C/C=C\C/C=C\CCCC(=O)O` [all cis-5,8,11,14-eicosatetraenoic] showed an IC50 of less than 70 µM. On the same count and under the same terms, under `CCCCCC/C=C\CCCCCCCCCC(=O)O` [cis-11-octadecanoic] stands less than 70 µM; under `CCCCCCCC/C=C\CCCCCCCCCCCCCC(=O)O` [cis-15-tetracosenoic], more than 1000 µM; under `CCCCCCCCCC(=O)O` [decanoic], more than 1000 µM. `CCCCCCCCCCCCCCCCCC(=O)O` [octadecanoic] came in with an IC50 of 100 to 500 µM. Same read-out and setting: under `CCCCCC/C=C/CCCCCCCCCC(=O)O` [trans-11-octadecenoic] stands more than 1000 µM.

The same experiment, now with this note: I0.5 value (concentration corresponding to 50% KinA activity), at 4×10^-8 M KinA.
For the compound `CCCCCCCCCCCCCCCCCC(=O)O` [octadecanoic], the IC50 was determined as 500 µM.

The experiment is the same for the next values; noted with them: Table 4; I0.5 at 4×10^-8 M KinA, 32P incorporation into SpoOF; read-out: Fatty Acid Inhibitors of KinA Activity (category by I0.5).
Take `CC(C)CCCCCCCCCCC(=O)O` [12-methyltridecanoic]: the IC50 is 100 to 500 µM. Take `CC(C)CCCCCCCCCCCC(=O)O` [13-methyltetradecanoic]: the IC50 lay within 100 to 500 µM. On to `CC(C)CCCCCCCCCCCCC(=O)O` [14-methylpentadecanoic], for which the IC50 was more than 1000 µM.

For the compound `CC(C)CCCCCCCCCCCCCC(=O)O` [15-methylhexadecanoic], the IC50 is more than 1000 µM. The same measure, in the same setting: under `CC(C)CCCCCCCCCCCCCCC(=O)O` [16-methylheptadecanoic] stands more than 1000 µM. `CC/C=C\C/C=C\C/C=C\CCCCCCCC(=O)O` [all cis-9,12,15-octadecanoic]: the IC50 was less than 70 µM. Same read-out and setting: next, `CCCCC/C=C\C/C=C\CCCCCCCC(=O)O` [cis,cis-9,12-octadecenoic]: less than 70 µM; `CCCCCCCCCCC/C=C\CCCCC(=O)O` [cis-6-octadecanoic]: less than 70 µM; `CCCCCC/C=C\CCCCCCCC(=O)O` [cis-9-hexadecanoic]: less than 70 µM. The same measure, in the same setting: next, `CCCC/C=C\CCCCCCCC(=O)O` [cis-9-tetradecenoic]: 100 to 500 µM; `CCCCCCCC/C=C\CCCCCCCCCC(=O)O` [cis-11-eicosenoic]: less than 70 µM.

With `CCCCCCCC/C=C\CCCCCCCCCCCC(=O)O` [cis-13-docosenoic], the IC50 was more than 1000 µM. Still for that read-out and setting: next, `CCCCCCCCCCCC(=O)O` [dodecanoic]: more than 1000 µM; `CCCCCCCCCCCCCCCCCCCC(=O)O` [eicosanoic]: more than 1000 µM; `CCCCCCCCCCCCCCCCC(=O)O` [heptadecanoic]: more than 1000 µM.

For `CCCCCCCCCCCCCCCC(=O)O` [hexadecanoic], the IC50 was more than 1000 µM.

Consider `CCCCCC(=O)O` [hexanoic], for which the IC50 was more than 1000 µM. `CCCCCCCC(=O)O` [octanoic]: the IC50 was more than 1000 µM. For `CCCCCCCCCCCCCC(=O)O` [tetradecanoic], the IC50 is more than 1000 µM. The same measure, in the same setting: next, `C/C=C/C(=O)O` [trans-2-butenoic]: more than 1000 µM; `CCCCCCCC/C=C/CCCCCCCC(=O)O` [trans-9-octadecenoic]: more than 1000 µM.

Staying with this experiment, now noted: at 4×10^-8 M KinA; read-out: I0.5 value (concentration corresponding to 50% KinA activity).
Take `CC(C)CCCCCCCCCCCC(=O)O` [13-methyltetradecanoic]: the IC50 amounted to 400 µM. Regarding `CCCC/C=C\CCCCCCCC(=O)O` [cis-9-tetradecenoic], the IC50 worked out at 200 µM.

Still in this experiment, the particulars now being: listed as 12-methyltridecanoic acid.
In the case of `CC(C)CCCCCCCCCCC(=O)O` [12-methyltridecanoic], the “inhibitory effect on KinA” value was “weak in vitro inhibitors”.

Staying with this experiment, now noted: listed as 13-methyltetradecanoic acid.
With `CC(C)CCCCCCCCCCCC(=O)O` [13-methyltetradecanoic], the “inhibitory effect on KinA” value was “weak in vitro inhibitors”.

The experiment is the same for the next values; noted with them: listed as elaidic.
Regarding `CCCCCCCC/C=C/CCCCCCCC(=O)O` [trans-9-octadecenoic], the “inhibitory effect on KinA” value was “little or no inhibitory effect; also recorded: not inhibitory”.

Still in this experiment, the particulars now being: listed as iso 14:0.
Turning to `CC(C)CCCCCCCCCCC(=O)O` [12-methyltridecanoic], the “inhibitory effect on KinA” value is on record as “weak inhibitory properties”.

Staying with this experiment, now noted: listed as iso 15:0.
As for `CC(C)CCCCCCCCCCCC(=O)O` [13-methyltetradecanoic], the “inhibitory effect on KinA” value is “weak inhibitory properties”.

The same experiment, now with this note: listed as stearic.
Take `CCCCCCCCCCCCCCCCCC(=O)O` [octadecanoic]: the “inhibitory effect on KinA” value was “little or no inhibitory effect”.

The same experiment, now with this note: listed as stearic acid.
With `CCCCCCCCCCCCCCCCCC(=O)O` [octadecanoic], the “inhibitory effect on KinA” value is given as “weak inhibitor; also recorded: very weak inhibitor”.

The same experiment, now with this note: listed as trans-vaccenic.
Consider `CCCCCC/C=C/CCCCCCCCCC(=O)O` [trans-11-octadecenoic], for which the “inhibitory effect on KinA” value is “little or no inhibitory effect; also recorded: not inhibitory”.

Staying with this experiment, now noted: tested at 0.08% final concentration.
Turning to `O=P(O)(O)OCC(O)CO` (centres unmarked) [glycerophosphate], the “inhibition of KinA phosphorylation of SpoOF (in words)” value is “Only oleic acid and stearic acid were inhibitory”. Same read-out and setting: under `CCCCCCCCCCCCCCCC(=O)O` [hexadecanoic] stands “Only oleic acid and stearic acid were inhibitory”. Still for that read-out and setting: under `CCCCCCCCCCCCCCCCCC(=O)O` [octadecanoic] stands “weak inhibition”; under L-α-glycerophosphatidylcholine, “Only oleic acid and stearic acid were inhibitory”; under L-α-phosphatidic acid, “Only oleic acid and stearic acid were inhibitory”.

For the compound L-α-phosphatidylcholine, the “inhibition of KinA phosphorylation of SpoOF (in words)” value was “Only oleic acid and stearic acid were inhibitory”.

The values are drawn from patent publication US6043045A, “Screening methods for the identification of novel antibiotics” (The Scripps Research Institute, priority 1998, dated 2000).
